Legend:
[1] = Calcium salt composition: recovery from tablet after direct compression; type: physicochemical; settings: for compatibility with calcium in the formulation process: formulated together with calcium salts; for recovered from the tablet after formulation: magnesium stearate, MCC, compared to amount pre-formulation
Protocol: We combined 47 mg of a 0.19 wt % formulation of the MK-7 derivative of Example 16 (diacetate) in microcrystalline cellulose MCC with 645 mg of 90 wt % calcium carbonate, […] of magnesium stearate and 745 mg of MCC and formulated tablets of this blend using direct compression.
After formulation we recovered the MK-7 derivative from the tablet. We recovered 88 wt % of the derivative from the tablet.
The same experiment was repeated using identical conditions other than the use of MK-7 rather than the MK-7 derivative. We recovered 77.6 wt % of MK7 from the tablet compared to the amount pre-formulation. We show therefore that the loss of MK7 during tableting process is 23%.

[2] = Light stability in ethyl acetate (HPLC % area); type: physicochemical; settings: for After 19 hrs % / Initial %: clear glass vial; for After 19 hrs %: 19 hours ordinary room lighting, HPLC % area; for Initial %: before light exposure, HPLC % area of total peak area
Protocol: (§1) The light stability of MK-7 was compared to compounds of the invention as hereinbefore described. Compounds were dissolved separately in ethyl acetate or MCT oil, transferred to glass vial (clear glass) and placed on the bench in a well lit laboratory (ordinary room lighting). The samples were analyzed after 19 hours of light exposure or more.
(§2) The samples were analyzed by HPLC using aHPLC_KB_001, with the HPLC conditions detailed below. • HPLC-DAD high pressure system: Agilent, LC system 1100 series • Analytical column: Supelcosil C-18, 4.6×250 mm, 5 μm • Column temperature: 40° C. • Flow rate: 1 mL/min • Injection volume: 8 μL • UV-detection: 270 nm/340 nm • Run time: 20 min • Eluent system: 50% Solvent C: MeOH/Water with 0.1% v/v acetic acid (95/5 v/v) 50% Solvent D: Isopropanol
(§3) The content of MK-7 and the MK-7 derivative in the samples have been quantified as % area of the total peak area in the chromatogram. […] Note that examples 2a and 2b show the synergistic behaviour discussed after table 2.

[3] = In vivo testing in rats: MK-7 in plasma after oral gavage; parameters: species or system male Sprague Dawley Rats
Protocol: Male Rats aged 6 to 8 weeks and weighing around 180 to 225 g. Animals were fasted overnight with free access to water. Animals were administered test substance by oral gavage with a dose of 100 μg/kg body weight (in recommended formulation and dose volume). Blood samples (150-200 μl) were collected at various time points during the next 48 hours post dose. To determine the bioavailability of different formulations containing MK-7 in male e Sprague Dawley Rats through gavage. Formulations were both dissolved in sunflower oil. Approximately 0.4 ml/animal (depending on the weight of the animal) via oral gavage (100 μg/kg body weight). There were 6 animals per formulation. Blood samples were collected from the tail vein of each animal and transferred into lithium heparin tubes at 2 and 12 hours post dose. Quantification of analyte in plasma was determined by LC-MS-MS analysis: Analyte: MK-7 in plasma. The data are mean of four measurements (low and high values are not included).

[4] = Light stability in MCT oil (HPLC % area); type: physicochemical; settings: 24 hours light exposure
Protocol: as §1, §2, §3

[5] = tablet with calcium carbonate, direct compression

Row | After 19 hrs % ([2]; in ethyl acetate) [%] | Initial % ([2]; in ethyl acetate) [%] | serum level 12 hours after administration compared with MK-7 [3] | reduction in the amount present after tabletting ([1]; directly compressed with excipients such as calcium or magnesium) | loss during tableting process [1, 5] [%] | degradation after 24 hours of light exposure [4] | light degradation in ethyl acetate compared with MCT oil ([2]; in ethyl acetate) | degradation after 19 hours of light exposure ([2]; in solution (ethyl acetate, Table 1), 19 hours light exposure) | Structure (SMILES) | compatibility with calcium in the formulation process [1] | recovered from the tablet after formulation [1, 5] [wt %] | compatibility with calcium in the formulation process ([1]; listed as MK7)
1 | – | – | the same | – | – | – | – | – | CCC(=O)Oc1c(C)c(C/C=C(\C)CC/C=C(\C)CC/C=C(\C)CC/C=C(\C)CC/C=C(\C)CC/C=C(\C)CCC=C(C)C)c(OC(=O)CC)c2ccccc12 [Example 7, 2-((2E,6E,10E,14E,18E,22E)-3,7,11,15,19,23,27-heptamethyloctacosa-2,6,10,14,18,22,26-heptaen-1-yl)-3-methylnaphthalene-1,4-diyl dipropionate] | – | – | –
2 | 95.4 | 98.5 | – | – | – | – | – | – | CC(C)=CCC/C(C)=C/CC/C(C)=C/CC/C(C)=C/CC/C(C)=C/CC/C(C)=C/CC/C(C)=C/Cc1c(C)c(OC(=O)c2ccccc2)c2ccccc2c1OC(=O)c1ccccc1 [Example 1, 2-((2E,6E,10E,14E,18E,22E)-3,7,11,15,19,23,27-heptamethyl-octacosa-2,6,10,14,18,22,26-heptaen-1-yl)-3-methylnaphthalene-1,4-diyl dibenzoate] | – | – | –
3 | 53.7 | 99.4 | – | up to 30% | 23 | approximately 70% | degrades even more rapidly | approximately 50% | CC(C)=CCC/C(C)=C/CC/C(C)=C/CC/C(C)=C/CC/C(C)=C/CC/C(C)=C/CC/C(C)=C/CC1=C(C)C(=O)c2ccccc2C1=O [MK-7, 2-((2E,6E,10E,14E,18E,22E)-3,7,11,15,19,23,27-Heptamethyloctacosa-2,6,10,14,18,22,26-heptaen-1-yl)-3-methylnaphthalene-1,4-dione] | degrades rapidly | 77.6 | degrades in the formulation process together with calcium

Row | Structure (SMILES) | After 19 hrs % ([2]; in ethyl acetate) [%] | Initial % ([2]; in ethyl acetate) [%] | serum level 12 hours after administration compared with MK-7 [3] | reduction in the amount present after tabletting ([1]; directly compressed with excipients such as calcium or magnesium) | loss during tableting process [1, 5] [%] | degradation after 24 hours of light exposure [4] | light degradation in ethyl acetate compared with MCT oil ([2]; in ethyl acetate) | degradation after 19 hours of light exposure ([2]; in solution (ethyl acetate, Table 1), 19 hours light exposure) | compatibility with calcium in the formulation process [1] | recovered from the tablet after formulation [1, 5] [wt %] | compatibility with calcium in the formulation process ([1]; listed as MK7)
4 | CC(=O)Oc1c(C)c(C/C=C(\C)CC/C=C(\C)CC/C=C(\C)CC/C=C(\C)CC/C=C(\C)CC/C=C(\C)CCC=C(C)C)c(OC(C)=O)c2ccccc12 [Example 16] | 92.7 | 93.1 | – | – | – | – | – | – | more compatible with calcium than MK7 | 88 | –

Source: patent US20160184254A1, “COMPOSITIONS COMPRISING VITAMIN K DERIVATIVES AND SALTS” (KAPPA BIOSCIENCE AS, priority 2013, published 2016)
